Values after ≈ are worked out from the molar mass of the structure shown. Values joined by “and” are separate entries in the source; they are usually repeats but may differ in a detail not shown here. Identical values can stand only once.
What was measured:
[1] = system: Bacillus subtilis IAM 1145; assay: Antimicrobial spectrum, agar dilution MIC; format: cell-based; conditions: medium A, 37 °C, 24 hrs
Description: (§1) Conditions for the measurements of the antimicrobial sepctra are as follows:
(§2) 80 mg of aflastatin A was dissolved in 4 ml of dimethyl sulfoxide (DMSO). This solution was diluted with DMSO to prepare a dilution series by two times as test solutions. The test solutions were filtrated with a filter and sterilized. 50 μl of each of them was added to 10 ml of a sterilized agar medium at 60° C. to prepare a dilution series of agar media. To each of the agar media, test strains were inoculated for antimicrobial activity. Media used for the tests are as follows:
(§3) A: Nutrient agar (manufactured by Nihon Suisan K.K.)

[2] = system: Escherichia coli IFO 14249; assay: Antimicrobial spectrum, agar dilution MIC; format: cell-based; conditions: medium A, 37 °C, 24 hrs
Description: as §1, §2, §3

[3] = system: Psuedomonas aeruginosa IAM 1514; assay: Antimicrobial spectrum, agar dilution MIC; format: cell-based; conditions: medium A, 37 °C, 24 hrs
Description: as §1, §2, §3

[4] = system: Staphylococcus aureus IFO 13276; assay: Antimicrobial spectrum, agar dilution MIC; format: cell-based; conditions: medium A, 37 °C, 24 hrs
Description: as §1, §2, §3

[5] = system: Candida albicans IFO 1594; assay: Antimicrobial spectrum, agar dilution MIC; format: cell-based; conditions: medium C, 30 °C, 48 hrs
Description: as §1, §2
(§4) C: Sabouraud agar (manufactured by Nihon Suisan K.K.)

[6] = system: Saccharomyces cerevisiae IFO 0250; assay: Antimicrobial spectrum, agar dilution MIC; format: cell-based; conditions: medium C, 30 °C, 48 hrs
Description: as §1, §2, §4

[7] = system: Trichophyton mentagrophytes IFO 5809; assay: Antimicrobial spectrum, agar dilution MIC; format: cell-based; conditions: medium C, 30 °C, 48 hrs
[8] = system: Fusarium graminearum ATCC 34909; format: cell-based
[9] = system: Aspergillus parasiticus NRRL 2999; assay: Antimicrobial spectrum, agar dilution MIC; format: cell-based; conditions: medium B, 27 °C, 48 hrs
Description: as §1, §2
B: Potato dextrose agar (manufactured by Nihon Suisan K.K.)

[10] = system: Pyricularia oryzae IFO 30732; format: cell-based
[11] = Solubility; format: physicochemical
[12] = system: ddy series male mice; assay: Toxicity, single administration to mice; format: in vivo
Description: Aflastatin A was suspended in a 0.25% carboxymethylcellulose solution and the suspension was administered to ddy series male mice. […] By single oral administration, no mice died in an administered amount of 1,000 mg/kg or less.

[13] = system: Aspergillus parasiticus NRRL 2999; format: cell-based
[14] = system: Aspergillus parasiticus NRRL 2999; set-up: key: -: no growth; +: growth delayed; ++: fine growth; conditions: in vivo
[15] = system: adenocarcinoma 755; assay: Antitumor activity, subcutaneously transplanted adenocarcinoma 755 in BDFI mice; format: in vivo, mouse; conditions: for Antitumor activity / Weight of tumor: four successive days, day 14; for Antitumor activity: control 100.0; for Weight of tumor: mean ± SD of six mice, control 1617.8 ± 179.07
Description: BDFI mice having a weight of from 21.0 to 24.3 g were divided into four groups each being 6 mice. A physiological saline suspension of adenocarcinoma 755 cells collected from subcultured 11th day mouse and adjusted, was transplanted subcutaneously at a right ventral portion of each mouse at a rate of 5×10^5 cells/0.5 ml/mouse.
The day of transplantation was regarded as the day 0. From the next day, intraperitoneal administration was carried out once a day for four successive days to each group at a rate of aflastatin A administration of 0.3 mg/kg/day, 1 mg/kg/day, or 3 mg/kg/day. The aflastatin A was suspended in a 0.25% carboxymethyl cellulose solution (manufactured by Nakarai Tesk) and administered at a dose of 10 ml/kg. The rest of the four groups was used as a control.
By the day 14, general conditions were observed every day, and the mice were clubbed to death at the day 14. Solid tumors were collected and their wet weights were measured. From the measured tumor weights, inhibitory ratios against the control group were calculated and antitumor activities were determined. The tumor weight is represented by an average of six mice±standard deviation.

## CCCCCCCCCC(O)C[C@]1(O)O[C@H](CC(O)C(O)C(O)C(O)C(O)CC(O)CC(O)CC(O)C(C)C(O)C(C)C(O)CC(O)C(C)C(O)C(C)C(O)C(C)C(O)C(O)CC(C)CC(C)/C=C(C)/C(O)=C2/C(=O)C(C)N(C)C2=O)[C@@H](O)[C@H](O)[C@@H]1O (stereo partly drawn) [aflastatin A]
[1]
  MIC: 0.39 µg/mL (≈ 0.31 µM)
[2]
  MIC: > 100 µg/mL
[3]
  MIC: > 100 µg/mL
[4]
  MIC: 0.78 µg/mL (≈ 0.62 µM)
[5]
  MIC: 0.39 µg/mL (≈ 0.31 µM)
[6]
  MIC: < 0.19 µg/mL
[7]
  MIC: 0.39 µg/mL (≈ 0.31 µM)
[8]
  MIC: > 100 µg/mL
[9]
  MIC: > 100 µg/mL
[10]
  MIC: > 0.19 µg/mL
[11]; aqueous butanol
  Solubility: slightly soluble
[11]; aqueous ethanol
  Solubility: slightly soluble
[11]; dimethyl sulfoxide
  Solubility: Soluble
[11]; glycerol
  Solubility: slightly soluble
[11]; methanol
  Solubility: slightly soluble
[11]; other organic solvents
  Solubility: practically insoluble
[11]; water
  Solubility: practically insoluble
[12]; single intraperitoneal administration, suspended in 0.25% carboxymethylcellulose
  LD50: 6.17 mg/kg
[12]; single oral administration, 1,000 mg/kg or less
  Mortality: no mice died
[13]
  Colony diameter: 7.8 ± 0.2 cm and 6.5 ± 0.2 cm and 5.5 ± 0.3 cm
[14]
  Growth of strains: ++
[15]; 0.3 mg/kg/day i.p.
  Antitumor activity: 42.0%
  Weight of tumor: 680.2 ± 176.63 mg
[15]; 1 mg/kg/day i.p.
  Antitumor activity: 24.3%
  Weight of tumor: 392.8 ± 87.07 mg
[15]; 3 mg/kg/day i.p.
  Dose assessment: overdose
  Mortality (printed in the column weight of tumor): All mice died by the day 3

Reference: patent publication US5773263A, “Production aflastatin A from streptomyces sp., a pharmaceutical composition and methods of use” (Morinaga & Co., Ltd., priority 1996, dated 1998)
